For data set [1], the target named is Sodium/hydrogen exchanger 1 (Homo sapiens, UniProt P19634). Nature of the data set: Inhibition of sodium dependent recovery of pH following imposed acidosis in AP1 cell line expressing the human NHE-1 isoform. Type of data set: functional, cell-based.
Data set [2] is described as follows: Plasma half life in rat at oral dose 2.8 mg/mk body weight. Type of data set: ADME, organism-based.
Data set [3] is described as follows: Oral bioavailability in rat (dose 2.8 mg/kg p.o.). The settings on record: in vivo. It counts as ADME, organism-based.

Molecules are shown by their SMILES.

Usually IC50 stands for the concentration at which inhibition is half-maximal. A higher IC50 goes with weaker potency. The half-life is the time needed for the level to fall by half in the phase considered. The term bioavailability denotes the share of a dose that reaches the circulation, judged against a reference dose that is usually intravenous. Read a low bioavailability as poor availability.

Chain of Sodium/hydrogen exchanger 1 (P19634 whole entry, canonical isoform): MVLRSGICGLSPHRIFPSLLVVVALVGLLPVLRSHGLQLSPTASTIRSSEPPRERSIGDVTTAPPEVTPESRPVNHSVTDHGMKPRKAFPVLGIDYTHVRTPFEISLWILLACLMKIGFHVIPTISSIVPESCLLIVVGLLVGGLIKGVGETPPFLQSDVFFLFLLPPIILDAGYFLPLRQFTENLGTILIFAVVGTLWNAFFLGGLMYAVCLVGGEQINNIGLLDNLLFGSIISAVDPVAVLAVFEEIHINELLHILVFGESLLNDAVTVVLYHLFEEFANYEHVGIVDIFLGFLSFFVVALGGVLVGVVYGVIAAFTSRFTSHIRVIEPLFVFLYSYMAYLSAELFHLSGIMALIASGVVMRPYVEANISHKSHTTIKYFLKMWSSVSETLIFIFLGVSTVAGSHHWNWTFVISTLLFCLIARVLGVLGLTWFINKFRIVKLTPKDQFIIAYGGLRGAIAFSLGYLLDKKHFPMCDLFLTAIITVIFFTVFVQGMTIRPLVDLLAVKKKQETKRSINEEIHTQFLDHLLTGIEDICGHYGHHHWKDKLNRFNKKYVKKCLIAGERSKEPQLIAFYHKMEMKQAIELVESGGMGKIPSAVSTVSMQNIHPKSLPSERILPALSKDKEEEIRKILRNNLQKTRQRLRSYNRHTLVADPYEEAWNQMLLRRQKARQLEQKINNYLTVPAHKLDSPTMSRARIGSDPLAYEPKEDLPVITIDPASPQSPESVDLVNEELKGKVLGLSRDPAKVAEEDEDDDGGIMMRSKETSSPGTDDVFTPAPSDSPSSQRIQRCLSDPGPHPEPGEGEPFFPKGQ

On to `CC1(C)C(c2cc(Cl)cc(Cl)c2)[C@H]1c1cnc(N)s1` (single isomer, unassigned), for which the IC50 in data set [1] is more than 30 µM. Same read-out and setting: in the case of `Cc1[nH]cnc1[C@@H]1C(c2cc(Cl)cc(Cl)c2)C1(C)C` (single isomer, unassigned) it was 0.95 µM. For `CC1(C)C(c2cccc(Cl)c2)[C@H]1c1cnc(N)s1` (single isomer, unassigned), 8 µM corresponded to half-maximal inhibition in data set [1] (IC50). On the same count and under the same terms, to `CC1(C)[C@H](c2c[nH]c(N)n2)[C@H]1c1cccc2c1CCO2` belongs 3.8 µM; to `CC1(C)C(c2cccc(Cl)c2)[C@H]1c1c[nH]c(N)n1` (single isomer, unassigned), 0.75 µM. In turn, `CC1(C)C(c2cccc(Cl)c2)[C@H]1C(=O)NC(=N)N` (single isomer, unassigned) gave a half-life in data set [2] of 300 min. This molecule returned a bioavailability in data set [3] of 26%. The molecule further had an IC50 in data set [1] of 0.021 µM.

For `CC1(C)[C@H](c2nc(N)no2)[C@H]1c1cccc2c1CCO2`, the IC50 in data set [1] is 30 µM.

Regarding `CC1(C)C(c2cc(Cl)cc(Cl)c2)[C@H]1c1cc(N)nc(N)n1` (single isomer, unassigned), the IC50 in data set [1] turned out to be 3.6 µM. Same read-out and setting: to `Cc1[nH]cnc1[C@@H]1[C@@H](c2cccc3c2CCO3)C1(C)C` belongs 11 µM. For the molecule `Cc1nc(N)[nH]c1[C@@H]1C(c2cccc(Cl)c2)C1(C)C` (single isomer, unassigned), the half-life in data set [2] is 300 min. For the same molecule, in data set [3], the bioavailability came out at 26%. In data set [1], this molecule showed a 50% inhibitory concentration (IC50) of 0.039 µM. `CC1(C)[C@H](c2c[nH]cn2)[C@H]1c1cccc2c1CCO2` gave an IC50 in data set [1] of more than 30 µM. On the same count and under the same terms, in the case of `CSc1nccn1[C@@H]1[C@@H](c2cccc(Cl)c2)C1(C)C` it was 4.85 µM; in that of `CC1(C)C(c2cc(Cl)cc(Cl)c2)[C@H]1c1c[nH]c(N)n1` (single isomer, unassigned), 0.18 µM; in that of `CC1(C)[C@H](c2cnc(N)s2)[C@H]1c1cccc2c1CCO2`, more than 30 µM. Same read-out and setting: to `Cc1[nH]c(N)nc1[C@@H]1C(c2cc(Cl)cc(Cl)c2)C1(C)C` (single isomer, unassigned) belongs 0.008 µM; to `CC1(C)C(c2cc(Cl)cc(Cl)c2)[C@H]1c1cnc[nH]1` (single isomer, unassigned), 4 µM. `Cc1[nH]c(N)nc1[C@@H]1[C@@H](c2cccc3c2CCO3)C1(C)C`: in data set [1], the IC50 is 2.6 µM. Compared with the last molecule, the IC50 is about 1.5-fold lower.

For the origin of these results see ChEMBL document CHEMBL1146688, “Aminoimidazoles as bioisosteres of acylguanidines: novel, potent, selective and orally bioavailable inhibitors of the sodium hydrogen exchanger isoform-1” (Bioorg Med Chem Lett, 2004).
